Patent US11370763B2, “Compounds and compositions for treating conditions associated with NLRP activity” (Novartis AG, priority 2017, dated 2022)
Where two headings read alike, the source gives them in different places.

Tested on: IL-1β production in PMA-differentiated THP-1 cells
Test: IL-1β production in PMA-differentiated THP-1 cells stimulated with gramicidin (hTHP-1 assay containing 2% fetal bovine serum; Procedures 1-3)
Type: cell-based, human
Settings: read-out: hTHP-1 IC50 (Average IC50 of compounds in hTHP-1 assay)
Experimental: The following protocol is suitable for testing the activity of the compounds disclosed herein.
Procedure 1: IL-1β Production in PMA-Differentiated THP-1 Cells Stimulated with Gramicidin
THP-1 cells were purchased from the American Type Culture Collection and sub-cultured according to instructions from the supplier. Cells were cultured in complete RPMI 1640 (containing 10% heat inactivated FBS, penicillin (100 units/ml) and streptomycin (100 μg/ml)), and maintained in log phase prior to experimental setup. Prior to the experiment, compounds were dissolved in dimethyl sulfoxide (DMSO) to generate a 30 mM stock. The compound stock was first pre-diluted in DMSO to 3, 0.34, 0.042 and 0.0083 mM intermediate concentrations and subsequently spotted using Echo550 liquid handler into an empty 384-well assay plate to achieve desired final concentration (e.g. 100, 33, 11, 3.7, 1.2, 0.41, 0.14, 0.046, 0.015, 0.0051, 0.0017 μM). DMSO was backfilled in the plate to achieve a final DMSO assay concentration of 0.37%. The plate was then sealed and stored at room temperature until required.
THP-1 cells were treated with PMA (Phorbol 12-myristate 13-acetate) (20 ng/ml) for 16-18 hours. On the day of the experiment the media was removed and adherent cells were detached with trypsin for 5 minutes. Cells were then harvested, washed with complete RPMI 1640, spun down, and resuspended in RPMI 1640 (containing 2% heat inactivated FBS, penicillin (100 units/ml) and streptomycin (100 μg/ml). The cells were plated in the 384-well assay plate containing the spotted compounds at a density of 50,000 cells/well (final assay volume 50 μl). Cells were incubated with compounds for 1 hour and then stimulated with gramicidin (5 μM) (Enzo) for 2 hours. Plates were then centrifuged at 340 g for 5 min. Cell free supernatant (40 μL) was collected using a 96-channel PlateMaster (Gilson) and the production of IL-1β was evaluated by HTRF (cisbio). The plates were incubated for 18 h at 4° C. and read using the preset HTRF program (donor emission at 620 nm, acceptor emission at 668 nm) of the SpectraMax i3x spectrophotometer (Molecular Devices, software SoftMax 6). A vehicle only control and a dose titration of CRID3 (100-0.0017 μM) were run concurrently with each experiment.
Procedure 2: IL-1β Production in PMA-Differentiated THP-1 Cells Stimulated with Gramicidin
THP-1 cells were purchased from the American Type Culture Collection and sub-cultured according to instructions from the supplier. Prior to experiments, cells were cultured in complete RPMI 1640 (containing 10% heat inactivated FBS, penicillin (100 units/ml) and streptomycin (100 μg/ml)), and maintained in log phase prior to experimental setup. Prior to the experiment THP-1 were treated with PMA (Phorbol 12-myristate 13-acetate) (20 ng/ml) for 16-18 hours. Compounds were dissolved in dimethyl sulfoxide (DMSO) to generate a 30 mM stock. On the day of the experiment the media was removed and adherent cells were detached with trypsin for 5 minutes. Cells were then harvested, washed with complete RPMI 1640, spun down, resuspended in RPMI 1640 (containing 2% heat inactivated FBS, penicillin (100 units/ml) and streptomycin (100 μg/ml). The cells were plated in a 384-well plate at a density of 50,000 cells/well (final assay volume 50 μl). Compounds were first dissolved in assay medium to obtain a 5× top concentration of 500 μM. 10 step dilutions (1:3) were then undertaken in assay medium containing 1.67% DMSO. 5× compound solutions were added to the culture medium to achieve desired final concentration (e.g. 100, 33, 11, 3.7, 1.2, 0.41, 0.14, 0.046, 0.015, 0.0051, 0.0017 μM). Final DMSO concentration was at 0.37%. Cells were incubated with compounds for 1 hour and then stimulated with gramicidin (5 μM) (Enzo) for 2 hours. Plates were then centrifuged at 340 g for 5 min. Cell free supernatant (40 μL) was collected using a 96-channel PlateMaster (Gilson) and the production of IL-1β was evaluated by HTRF (cisbio). […]

[1] = Homo sapiens, THP-1, hTHP-1 assay containing 2% fetal bovine serum, class symbols
[2] = Homo sapiens, THP-1, hTHP-1 assay containing 2% fetal bovine serum, given as numeric bound
[3] = hTHP-1 assay containing 2% fetal bovine serum, class symbols

IC50 [1] [µM] | IC50 [2] [µM] | SMILES | other results
1 to 5 |  | CC(C)c1cc(F)cc(C(C)C)c1CC(=O)NS(=N)(=O)c1ccc(C(C)(C)O)cc1 (single isomer, unassigned) [Example 2] | 
 | > 30 | CC(C)c1cc(F)cc(C(C)C)c1CC(=O)NS(=N)(=O)c1ccc(C(C)(C)O)cc1 (single isomer, unassigned) [Example 3] | 
 | > 30 | CC(C)(O)c1cnc(S(=N)(=O)NC(=O)Cc2c3c(cc4c2CCC4)CCC3)s1 (single isomer, unassigned) [Example 5] | 
1 to 5 |  | CC(C)(O)c1cnc(S(=N)(=O)NC(=O)Cc2c3c(cc4c2CCC4)CCC3)s1 (single isomer, unassigned) [Example 6] | 
1 to 5 |  | CC(C)c1cc(F)cc(C(C)C)c1CC(=O)N[S@](=N)(=O)c1ncc(C(C)(C)O)s1 (single isomer, unassigned) [Example 8] | 
0.2 to 1 |  | CC(C)c1cc(F)cc(C(C)C)c1CC(=O)N[S@@](=N)(=O)c1ncc(C(C)(C)O)s1 (single isomer, unassigned) [Example 9] | 
 | > 30 | CC(C)c1cc(F)cc(C2CC2)c1CC(=O)N=S(N)(=O)c1ccc(CN(C)C)cc1 (single isomer, unassigned) [Example 46, (S)- or (R)-2-(2-cyclopropyl-4-fluoro-6-isopropylphenyl)-N-(4-((dimethylamino)methyl)phenyl-sulfonimidoyl)acetamide] | 
0.2 to 1 |  | CC(C)c1cc(F)cc(C2CC2)c1CC(=O)N=S(N)(=O)c1ccc(CN(C)C)cc1 (single isomer, unassigned) [Example 47, (R)- or (S)-2-(2-cyclopropyl-4-fluoro-6-isopropylphenyl)-N-(4-((dimethylamino)methyl)phenyl-sulfonimidoyl)acetamide] | 
 |  | CC(C)c1cc(F)cc(C(C)C)c1CC(=O)N=S(N)(=O)c1sc(C(C)(C)O)cc1F (single isomer, unassigned) [Example 50, (S)- or (R)-2-(4-fluoro-2,6-diisopropylphenyl)-N-(3-fluoro-5-(2-hydroxypropan-2-yl)thiophen-2-ylsulfonimidoyl)acetamide] | IC50 [3]: 0.008 to 0.04 µM
 |  | CC(C)c1c(F)c(C#N)cc(C2CC2)c1CC(=O)N=S(N)(=O)c1sc(C(C)(C)O)cc1F (single isomer, unassigned) [Example 54, (S)- or (R)-2-(4-cyano-6-cyclopropyl-3-fluoro-2-isopropylphenyl)-N-(3-fluoro-5-(2-hydroxypropan-2-yl)thiophen-2-ylsulfonimidoyl)acetamide] | IC50 [3]: 0.008 to 0.04 µM
 |  | CC(C)c1cc(Cl)c(F)c(C2CC2)c1CC(=O)N=S(N)(=O)c1sc(C(C)(C)O)cc1F (single isomer, unassigned) [Example 56, (S)- or (R)-2-(4-chloro-2-cyclopropyl-3-fluoro-6-isopropylphenyl)-N-(3-fluoro-5-(2-hydroxypropan-2-yl)thiophen-2-ylsulfonimidoyl)acetamide] | IC50 [3]: 0.2 to 1 µM
 | > 30 | CCc1cc(C#N)cc(C(C)C)c1CC(=O)N=S(N)(=O)c1ccc(CN(C)C)cc1 (single isomer, unassigned) [Example 58, (S)- or (R)-2-(4-cyano-2-ethyl-6-isopropylphenyl)-N-(4-((dimethylamino)methyl)phenyl-sulfonimidoyl)acetamide] | 
5 to 30 |  | CCc1cc(C#N)cc(C(C)C)c1CC(=O)N=S(N)(=O)c1ccc(CN(C)C)cc1 (single isomer, unassigned) [Example 59, (R)- or (S)-2-(4-cyano-2-ethyl-6-isopropylphenyl)-N-(4-((dimethylamino)methyl)phenyl-sulfonimidoyl)acetamide] | 
1 to 5 |  | CC(C)c1cc(C#N)cc(C2CC2)c1CC(=O)N=S(N)(=O)c1ccc(CN(C)C)cc1F (single isomer, unassigned) [Example 62, (S)- or (R)-2-(4-cyano-2-cyclopropyl-6-isopropylphenyl)-N-(4-((dimethylamino)methyl)-2-fluorophenylsulfonimidoyl) acetamide] | 
 | > 30 | CC(C)c1cc(C#N)cc(C2CC2)c1CC(=O)N=S(N)(=O)c1ccc(CN(C)C)cc1F (single isomer, unassigned) [Example 63, (R)- or (S)-2-(4-cyano-2-cyclopropyl-6-isopropylphenyl)-N-(4-((dimethylamino)methyl)-2-fluorophenylsulfonimidoyl) acetamide] | 
 |  | CC(C)c1cc(C#N)cc(C(C)C)c1CC(=O)N=S(N)(=O)c1sc(C(C)(C)O)nc1CO (single isomer, unassigned) [Example 64, (S)- or (R)-2-(4-cyano-2,6-diisopropylphenyl)-N-(4-(hydroxymethyl)-2-(2-hydroxypropan-2-yl)thiazol-5-ylsulfonimidoyl)acetamide] | IC50 [3]: 0.2 to 1 µM
0.2 to 1 |  | CC(C)(O)c1nc(CO)c(S(N)(=O)=NC(=O)Cc2c3c(cc4c2CCC4)CCC3)s1 (single isomer, unassigned) [Example 66, (S)- or (R)-2-(1,2,3,5,6,7-hexahydros-indacen-4-yl)-N-(4-(hydroxymethyl)-2-(2-hydroxypropan-2-yl)thiazol-5-ylsulfonimidoyl)acetamide] | 
 | > 30 | CC(C)(O)c1nc(CO)c(S(N)(=O)=NC(=O)Cc2c3c(cc4c2CCC4)CCC3)s1 (single isomer, unassigned) [Example 67, (R)- or (S)-2-(1,2,3,5,6,7-hexahydros-indacen-4-yl)-N-(4-(hydroxymethyl)-2-(2-hydroxypropan-2-yl)thiazol-5-ylsulfonimidoyl)acetamide] | 
 |  | COCc1cc(C(C)C)c(CC(=O)N=S(N)(=O)c2sc(C(C)(C)O)nc2CO)c(C(C)C)c1 (single isomer, unassigned) [Example 68, (S)- or (R)-2-(2,6-diisopropyl-4-(methoxymethyl)phenyl)-N-(4-(hydroxymethyl)-2-(2-hydroxypropan-2-yl)thiazol-5-ylsulfonimidoyl)acetamide] | IC50 [3]: 0.2 to 1 µM
1 to 5 |  | CC(C)c1cc(C#N)cc(C(C)C)c1CC(=O)N=S(N)(=O)c1ccc(CN(C)C)cc1 (single isomer, unassigned) [Example 72, (S)- or (R)-2-(4-cyano-2,6-diisopropylphenyl)-N-(4-((dimethylamino)methyl)phenyl-sulfonimidoyl)acetamide] | 
 | > 30 | CC(C)c1cc(C#N)cc(C(C)C)c1CC(=O)N=S(N)(=O)c1ccc(CN(C)C)cc1 (single isomer, unassigned) [Example 73, (R)- or (S)-2-(4-cyano-2,6-diisopropylphenyl)-N-(4-((dimethylamino)methyl)phenyl-sulfonimidoyl)acetamide] | 
 | > 30 | CC(C)c1cc(C#N)cc(C2CC2)c1CC(=O)N=S(N)(=O)c1ccc(CN(C)C)cc1 (single isomer, unassigned) [Example 74, (S)- or (R)-2-(4-cyano-2-cyclopropyl-6-isopropylphenyl)-N-(4-((dimethylamino)methyl)phenyl-sulfonimidoyl)acetamide] | 
1 to 5 |  | CC(C)c1cc(C#N)cc(C2CC2)c1CC(=O)N=S(N)(=O)c1ccc(CN(C)C)cc1 (single isomer, unassigned) [Example 75, (R)- or (S)-2-(4-cyano-2-cyclopropyl-6-isopropylphenyl)-N-(4-((dimethylamino)methyl)phenyl-sulfonimidoyl)acetamide] | 
